As usually defined, the MIC is the lowest concentration found to suppress growth. Lower therefore signals greater potency.

Type in all cases: functional
Assay [1] relates to Mycobacterium kansasii. The experiment in a line: Antimycobacterial activity against Mycobacterium kansasii 6509/96 after 14 days by micromethod. Conditions: 6509/96, 336 h.
Assay [2] relates to Mycobacterium kansasii. The experiment in a line: Antimycobacterial activity against Mycobacterium kansasii CNCTC My 235/80 after 14 days by micromethod. The settings on record: CNCTC My 235/80, 336 h.
For assay [3], the system named is Mycobacterium avium. The experiment in a line: Antimycobacterial activity against Mycobacterium avium CNCTC My 330/88 after 14 days by micromethod. The settings on record: CNCTC My 330/88, 336 h.
Assay [4] concerns Mycobacterium kansasii. The experiment in a line: Antimycobacterial activity against Mycobacterium kansasii 6509/96 after 7 days by micromethod. The settings on record: 6509/96, 168 h.
Assay [5] has as its system Mycobacterium kansasii. The experiment in a line: Antimycobacterial activity against Mycobacterium kansasii 6509/96 after 21 days by micromethod. Conditions: 6509/96, 504 h.
In assay [6] the test system is Mycobacterium tuberculosis. The experiment in a line: Antimycobacterial activity against Mycobacterium tuberculosis CNCTC My 331/88 after 14 days by micromethod. Conditions: CNCTC My 331/88, 336 h.
In assay [7] the test system is Mycobacterium kansasii. The experiment in a line: Antimycobacterial activity against Mycobacterium kansasii CNCTC My 235/80 after 21 days by micromethod. Conditions: CNCTC My 235/80, 504 h.
For assay [8], the system named is Mycobacterium kansasii. The experiment in a line: Antimycobacterial activity against Mycobacterium kansasii CNCTC My 235/80 after 7 days by micromethod. Conditions: CNCTC My 235/80, 168 h.
The test system of assay [9] is Mycobacterium tuberculosis. The experiment in a line: Antimycobacterial activity against Mycobacterium tuberculosis CNCTC My 331/88 after 21 days by micromethod. The settings on record: CNCTC My 331/88, 504 h.
Assay [10] deals with Mycobacterium avium. The experiment in a line: Antimycobacterial activity against Mycobacterium avium CNCTC My 330/88 after 21 days by micromethod. The settings on record: CNCTC My 330/88, 504 h.

The structures appear in SMILES notation. Values after ≈ are worked out from the molar mass of the structure shown.

Turning to `Cc1ccc(-n2nnnc2SCc2cc([N+](=O)[O-])cc([N+](=O)[O-])c2)cc1C`, the minimal inhibitory concentration (MIC) was 250 µM (≈ 96.6 µg/mL) in [1]; 250 µM (≈ 96.6 µg/mL) in assay [2]; 250 µM (≈ 96.6 µg/mL) in assay [3]; 250 µM (≈ 96.6 µg/mL) in assay [4]; 250 µM (≈ 96.6 µg/mL) in assay [5]; 500 µM (≈ 193 µg/mL) in assay [6]. Also, the MIC in [7] was determined as 250 µM (≈ 96.6 µg/mL); in assay [8] it was 250 µM (≈ 96.6 µg/mL); in assay [9], 500 µM (≈ 193 µg/mL); in assay [10], 250 µM (≈ 96.6 µg/mL).
Turning to `COc1cc(-n2nnnc2OCc2cc([N+](=O)[O-])cc([N+](=O)[O-])c2)cc(OC)c1OC`, the MIC in [1] was found to be 32 µM (≈ 13.8 µg/mL); in assay [2], 16 µM (≈ 6.92 µg/mL); in assay [3], 32 µM (≈ 13.8 µg/mL); in assay [4], 16 µM (≈ 6.92 µg/mL); in assay [5], 62 µM (≈ 26.8 µg/mL); in assay [6], 16 µM (≈ 6.92 µg/mL). Also, the MIC in [7] came out at 32 µM (≈ 13.8 µg/mL); in [8] it was 8 µM (≈ 3.46 µg/mL); in assay [9], 16 µM (≈ 6.92 µg/mL); in [10] it was 32 µM (≈ 13.8 µg/mL).
Turning to `COc1ccc(-n2nnnc2OCc2cc([N+](=O)[O-])cc([N+](=O)[O-])c2)cc1`, the MIC in assay [1] amounted to 16 µM (≈ 5.96 µg/mL); in assay [2], 8 µM (≈ 2.98 µg/mL); in assay [3], 16 µM (≈ 5.96 µg/mL); in assay [4], 4 µM (≈ 1.49 µg/mL); in assay [5], 16 µM (≈ 5.96 µg/mL); in [6] it was 2 µM (≈ 0.745 µg/mL). Moreover, the MIC was found to be 16 µM (≈ 5.96 µg/mL) in assay [7], 4 µM (≈ 1.49 µg/mL) in assay [8], 2 µM (≈ 0.745 µg/mL) in [9] and 32 µM (≈ 11.9 µg/mL) in [10].
With `COc1ccc(-n2nnnc2S(=O)(=O)Cc2cc([N+](=O)[O-])cc([N+](=O)[O-])c2)cc1`, the MIC turned out to be 125 µM (≈ 52.5 µg/mL) in [1]; 250 µM (≈ 105 µg/mL) in assay [2]; 125 µM (≈ 52.5 µg/mL) in assay [3]; 125 µM (≈ 52.5 µg/mL) in assay [4]; 125 µM (≈ 52.5 µg/mL) in [5]; 8 µM (≈ 3.36 µg/mL) in [6]. In addition, the MIC in [7] came to 250 µM (≈ 105 µg/mL); in assay [8], 125 µM (≈ 52.5 µg/mL); in assay [9], 8 µM (≈ 3.36 µg/mL); in assay [10] it was 125 µM (≈ 52.5 µg/mL).
For `CC(=O)SCc1cc([N+](=O)[O-])cc([N+](=O)[O-])c1`, the MIC came to 125 µM (≈ 32 µg/mL) in [1]; 32 µM (≈ 8.2 µg/mL) in [2]; 62 µM (≈ 15.9 µg/mL) in assay [3]; 62 µM (≈ 15.9 µg/mL) in [4]; 500 µM (≈ 128 µg/mL) in [5]; 8 µM (≈ 2.05 µg/mL) in [6]. In addition, the MIC is 125 µM (≈ 32 µg/mL) in assay [7], 16 µM (≈ 4.1 µg/mL) in assay [8], 16 µM (≈ 4.1 µg/mL) in assay [9] and 125 µM (≈ 32 µg/mL) in [10].
With `CSCc1cc([N+](=O)[O-])cc([N+](=O)[O-])c1`, the MIC in [1] was 250 µM (≈ 57.1 µg/mL); in [2], 125 µM (≈ 28.5 µg/mL); in assay [3], 250 µM (≈ 57.1 µg/mL); in [4], 125 µM (≈ 28.5 µg/mL); in [5], 500 µM (≈ 114 µg/mL); in assay [6] it was 62 µM (≈ 14.2 µg/mL). Also, the MIC in assay [7] is 250 µM (≈ 57.1 µg/mL); in assay [8], 62 µM (≈ 14.2 µg/mL); in assay [9], 125 µM (≈ 28.5 µg/mL); in [10] it was 250 µM (≈ 57.1 µg/mL).
As to `COc1ccc(-n2nnnc2SCc2cc(N)cc(N)c2)cc1`, the MIC in [1] is 1000 µM (≈ 328 µg/mL); in assay [2], 1000 µM (≈ 328 µg/mL); in assay [3], 1000 µM (≈ 328 µg/mL); in [4], 250 µM (≈ 82.1 µg/mL); in assay [5] it was 1000 µM (≈ 328 µg/mL); in [6] it was 125 µM (≈ 41.1 µg/mL). Moreover, the minimum inhibitory concentration (MIC) was 1000 µM (≈ 328 µg/mL) in assay [7], 250 µM (≈ 82.1 µg/mL) in [8], 125 µM (≈ 41.1 µg/mL) in assay [9] and 1000 µM (≈ 328 µg/mL) in assay [10].
Regarding `O=[N+]([O-])c1cc(COc2nnnn2-c2ccc(Br)cc2)cc([N+](=O)[O-])c1`, the MIC in assay [1] is 16 µM (≈ 6.74 µg/mL); in assay [2], 16 µM (≈ 6.74 µg/mL); in assay [3] it was 125 µM (≈ 52.6 µg/mL); in assay [4] it was 4 µM (≈ 1.68 µg/mL); in assay [5] it was 16 µM (≈ 6.74 µg/mL); in [6] it was 2 µM (≈ 0.842 µg/mL). Further, the MIC came out at 16 µM (≈ 6.74 µg/mL) in assay [7], 8 µM (≈ 3.37 µg/mL) in [8], 4 µM (≈ 1.68 µg/mL) in assay [9] and 125 µM (≈ 52.6 µg/mL) in [10].
As for `NNC(=O)c1ccncc1` [ISONIAZID], the MIC in assay [1] was 4 µM (≈ 0.549 µg/mL); in [2] it was more than 250 µM; in assay [3], more than 250 µM; in assay [4], 4 µM (≈ 0.549 µg/mL); in assay [5], 4 µM (≈ 0.549 µg/mL); in assay [6], 0.5 µM (≈ 0.0686 µg/mL). Further, the figures for the MIC in assay [8], in assay [9] and in assay [10] were more than 250 µM, 1 µM (≈ 0.137 µg/mL) and more than 250 µM, respectively.

The values are drawn from ChEMBL document CHEMBL3297661, “1-Substituted-5-[(3,5-dinitrobenzyl)sulfanyl]-1H-tetrazoles and their isosteric analogs: A new class of selective antitubercular agents active against drug-susceptible and multidrug-resistant mycobacteria” (Eur J Med Chem, 2014).
